{"source": "paper PMC5564600", "about": "(Oncotarget, 2017)", "test_in_all_cases": "biochemical", "type_in_all_cases": "binding", "key": {"[1]": {"molecular_target": "T1, panel of 442 kinases (Homo sapiens, UniProt P09619)", "T1 construct": "purchased Ambit Biosciences (scanMAXX KINOMEscan)", "T1 sequence (P09619 33-1106)": "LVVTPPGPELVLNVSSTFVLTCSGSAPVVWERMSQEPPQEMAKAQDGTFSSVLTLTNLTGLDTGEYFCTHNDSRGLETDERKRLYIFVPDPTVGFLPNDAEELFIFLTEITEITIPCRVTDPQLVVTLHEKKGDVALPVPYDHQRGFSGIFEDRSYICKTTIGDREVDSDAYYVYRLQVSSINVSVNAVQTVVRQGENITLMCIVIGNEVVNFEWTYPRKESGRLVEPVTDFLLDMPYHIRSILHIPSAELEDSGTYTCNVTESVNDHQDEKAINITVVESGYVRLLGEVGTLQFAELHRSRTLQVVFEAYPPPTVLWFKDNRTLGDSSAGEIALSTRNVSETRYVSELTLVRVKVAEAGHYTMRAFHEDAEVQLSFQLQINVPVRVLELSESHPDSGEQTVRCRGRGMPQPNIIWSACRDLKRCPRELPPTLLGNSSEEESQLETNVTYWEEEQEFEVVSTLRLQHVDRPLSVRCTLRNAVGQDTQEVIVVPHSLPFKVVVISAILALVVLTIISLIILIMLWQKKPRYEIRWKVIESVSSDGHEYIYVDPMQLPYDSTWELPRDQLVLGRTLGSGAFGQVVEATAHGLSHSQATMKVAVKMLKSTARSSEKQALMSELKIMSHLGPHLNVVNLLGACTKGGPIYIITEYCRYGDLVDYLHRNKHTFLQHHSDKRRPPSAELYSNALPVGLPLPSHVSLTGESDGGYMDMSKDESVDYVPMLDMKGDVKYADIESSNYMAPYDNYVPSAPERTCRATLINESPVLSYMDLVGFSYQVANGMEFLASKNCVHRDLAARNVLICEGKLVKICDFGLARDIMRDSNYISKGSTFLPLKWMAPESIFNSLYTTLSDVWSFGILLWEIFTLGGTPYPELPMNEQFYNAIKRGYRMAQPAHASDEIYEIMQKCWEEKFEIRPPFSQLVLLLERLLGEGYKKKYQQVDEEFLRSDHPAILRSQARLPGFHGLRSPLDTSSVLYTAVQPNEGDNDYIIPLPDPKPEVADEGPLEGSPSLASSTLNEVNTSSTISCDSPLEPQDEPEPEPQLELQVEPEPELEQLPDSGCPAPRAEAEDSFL", "settings": "kinase PDGFRB; for remaining activity at 1 µM: read-out: % of control at 1 µM"}, "[2]": {"molecular_target": "T2, panel of 442 kinases (Homo sapiens, UniProt P54756)", "T2 construct": "purchased Ambit Biosciences (scanMAXX KINOMEscan)", "T2 sequence (P54756 25-1037)": "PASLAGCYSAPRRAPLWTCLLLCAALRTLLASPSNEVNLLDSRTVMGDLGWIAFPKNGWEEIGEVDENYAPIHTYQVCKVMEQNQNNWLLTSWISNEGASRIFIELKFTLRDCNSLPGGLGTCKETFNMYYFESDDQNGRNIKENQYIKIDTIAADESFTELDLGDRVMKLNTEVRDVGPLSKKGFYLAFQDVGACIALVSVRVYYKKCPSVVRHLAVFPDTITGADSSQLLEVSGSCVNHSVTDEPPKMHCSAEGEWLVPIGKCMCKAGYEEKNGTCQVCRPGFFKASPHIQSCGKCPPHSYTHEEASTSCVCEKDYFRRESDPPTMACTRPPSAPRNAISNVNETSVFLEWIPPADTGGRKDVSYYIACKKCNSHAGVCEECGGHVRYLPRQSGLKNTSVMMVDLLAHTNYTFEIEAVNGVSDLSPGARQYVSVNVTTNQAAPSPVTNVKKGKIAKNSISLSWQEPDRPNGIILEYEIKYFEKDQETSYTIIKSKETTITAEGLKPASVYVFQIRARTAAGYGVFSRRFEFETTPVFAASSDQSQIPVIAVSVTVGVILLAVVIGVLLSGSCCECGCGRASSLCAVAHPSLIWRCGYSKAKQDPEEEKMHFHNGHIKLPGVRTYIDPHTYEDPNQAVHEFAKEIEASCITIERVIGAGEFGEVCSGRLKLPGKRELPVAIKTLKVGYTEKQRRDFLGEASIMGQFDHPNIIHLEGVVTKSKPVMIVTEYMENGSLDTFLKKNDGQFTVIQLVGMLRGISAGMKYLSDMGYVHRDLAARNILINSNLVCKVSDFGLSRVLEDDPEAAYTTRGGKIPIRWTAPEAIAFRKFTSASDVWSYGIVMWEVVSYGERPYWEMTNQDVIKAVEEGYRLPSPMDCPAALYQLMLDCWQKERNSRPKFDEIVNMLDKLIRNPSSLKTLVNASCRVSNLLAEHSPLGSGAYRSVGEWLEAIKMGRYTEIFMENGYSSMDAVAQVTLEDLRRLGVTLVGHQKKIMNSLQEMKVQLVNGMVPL", "settings": "EPHA5; for remaining activity at 1 µM: read-out: % of control at 1 µM"}, "[3]": {"molecular_target": "T3, panel of 442 kinases (Homo sapiens, UniProt P29323)", "T3 construct": "purchased Ambit Biosciences (scanMAXX KINOMEscan)", "T3 sequence (P29323 19-1055)": "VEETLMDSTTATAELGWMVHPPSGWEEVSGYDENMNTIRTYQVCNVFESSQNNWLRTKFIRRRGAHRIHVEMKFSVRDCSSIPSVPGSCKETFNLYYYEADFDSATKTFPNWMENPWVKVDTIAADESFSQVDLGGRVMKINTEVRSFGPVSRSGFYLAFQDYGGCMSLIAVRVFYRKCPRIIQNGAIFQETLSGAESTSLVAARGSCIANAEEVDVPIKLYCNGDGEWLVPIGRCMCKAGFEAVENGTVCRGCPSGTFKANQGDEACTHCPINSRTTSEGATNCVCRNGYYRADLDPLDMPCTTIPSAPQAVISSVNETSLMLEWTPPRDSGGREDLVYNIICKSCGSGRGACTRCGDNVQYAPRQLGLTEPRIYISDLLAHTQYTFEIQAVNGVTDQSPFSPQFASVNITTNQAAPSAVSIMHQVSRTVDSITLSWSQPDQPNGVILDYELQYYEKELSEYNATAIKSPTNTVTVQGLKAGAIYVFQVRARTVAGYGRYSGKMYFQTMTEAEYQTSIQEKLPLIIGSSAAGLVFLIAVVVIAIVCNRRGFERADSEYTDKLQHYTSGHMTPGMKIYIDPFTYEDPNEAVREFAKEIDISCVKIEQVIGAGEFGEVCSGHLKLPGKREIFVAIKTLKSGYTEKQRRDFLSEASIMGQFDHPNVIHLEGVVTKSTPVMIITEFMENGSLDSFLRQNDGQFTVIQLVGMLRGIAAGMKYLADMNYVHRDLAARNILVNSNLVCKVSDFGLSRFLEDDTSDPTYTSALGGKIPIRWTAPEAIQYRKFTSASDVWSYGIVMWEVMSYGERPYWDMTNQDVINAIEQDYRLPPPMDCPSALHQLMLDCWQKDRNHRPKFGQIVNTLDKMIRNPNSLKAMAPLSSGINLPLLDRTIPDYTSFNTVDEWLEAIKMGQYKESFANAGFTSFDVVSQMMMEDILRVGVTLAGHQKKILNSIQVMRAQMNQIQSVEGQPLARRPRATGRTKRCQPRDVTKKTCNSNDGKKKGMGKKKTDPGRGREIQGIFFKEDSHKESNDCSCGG", "settings": "EPHB2; for remaining activity at 1 µM: read-out: % of control at 1 µM"}, "[4]": {"molecular_target": "T4, panel of 442 kinases (Homo sapiens, UniProt P36897)", "T4 construct": "purchased Ambit Biosciences (scanMAXX KINOMEscan)", "T4 sequence (P36897 34-503)": "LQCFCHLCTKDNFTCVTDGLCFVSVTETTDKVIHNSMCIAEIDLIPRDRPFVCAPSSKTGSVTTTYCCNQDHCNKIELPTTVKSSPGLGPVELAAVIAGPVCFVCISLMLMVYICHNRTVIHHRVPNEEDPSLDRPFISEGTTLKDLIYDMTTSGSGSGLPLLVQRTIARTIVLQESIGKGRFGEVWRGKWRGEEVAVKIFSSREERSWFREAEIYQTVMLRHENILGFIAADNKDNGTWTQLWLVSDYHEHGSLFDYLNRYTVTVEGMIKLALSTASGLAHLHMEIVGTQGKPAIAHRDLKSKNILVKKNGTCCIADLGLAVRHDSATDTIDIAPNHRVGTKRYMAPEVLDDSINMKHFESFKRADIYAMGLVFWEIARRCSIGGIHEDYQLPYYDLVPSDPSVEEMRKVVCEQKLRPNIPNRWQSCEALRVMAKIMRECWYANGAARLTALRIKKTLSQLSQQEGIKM", "settings": "kinase TGFBR1; for remaining activity at 1 µM: read-out: TGFBR1 (% of control at 1 µM)"}, "[5]": {"molecular_target": "T5, panel of 442 kinases (Homo sapiens, UniProt P10721, V559D/V654A)", "T5 construct": "purchased Ambit Biosciences (scanMAXX KINOMEscan)", "T5 sequence (P10721 26-976 V559D/V654A)": "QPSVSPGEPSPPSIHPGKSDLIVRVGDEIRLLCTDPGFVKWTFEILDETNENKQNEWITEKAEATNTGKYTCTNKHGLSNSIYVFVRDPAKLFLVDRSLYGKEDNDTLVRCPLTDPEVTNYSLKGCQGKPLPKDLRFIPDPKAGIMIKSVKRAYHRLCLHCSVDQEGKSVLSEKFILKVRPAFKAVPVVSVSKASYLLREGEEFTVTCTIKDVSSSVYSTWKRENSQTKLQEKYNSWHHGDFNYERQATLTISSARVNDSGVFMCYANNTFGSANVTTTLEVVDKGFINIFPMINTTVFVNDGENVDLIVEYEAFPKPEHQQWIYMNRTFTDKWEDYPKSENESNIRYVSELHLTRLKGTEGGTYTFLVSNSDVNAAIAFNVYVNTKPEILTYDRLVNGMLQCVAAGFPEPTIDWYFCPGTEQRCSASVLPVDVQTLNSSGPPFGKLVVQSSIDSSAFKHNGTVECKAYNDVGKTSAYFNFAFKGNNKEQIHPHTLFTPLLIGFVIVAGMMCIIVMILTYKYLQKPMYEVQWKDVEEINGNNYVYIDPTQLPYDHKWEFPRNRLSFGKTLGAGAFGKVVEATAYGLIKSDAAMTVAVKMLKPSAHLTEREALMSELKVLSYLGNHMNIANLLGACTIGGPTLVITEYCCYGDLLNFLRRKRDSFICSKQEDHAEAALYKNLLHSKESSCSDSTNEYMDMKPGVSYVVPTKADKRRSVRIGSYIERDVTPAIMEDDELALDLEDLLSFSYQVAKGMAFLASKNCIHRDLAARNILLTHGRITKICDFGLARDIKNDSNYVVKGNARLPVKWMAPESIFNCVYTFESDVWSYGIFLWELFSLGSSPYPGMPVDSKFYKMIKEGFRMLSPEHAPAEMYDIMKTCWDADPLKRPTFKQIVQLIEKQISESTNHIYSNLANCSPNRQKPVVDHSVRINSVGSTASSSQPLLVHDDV", "settings": "kinase KIT(V559D,V654A); for remaining activity at 1 µM: read-out: % of control at 1 µM"}, "[6]": {"molecular_target": "T6, panel of 442 kinases (Homo sapiens, UniProt Q9NWZ3)", "T6 construct": "purchased Ambit Biosciences (scanMAXX KINOMEscan)", "T6 sequence (Q9NWZ3 1-460)": "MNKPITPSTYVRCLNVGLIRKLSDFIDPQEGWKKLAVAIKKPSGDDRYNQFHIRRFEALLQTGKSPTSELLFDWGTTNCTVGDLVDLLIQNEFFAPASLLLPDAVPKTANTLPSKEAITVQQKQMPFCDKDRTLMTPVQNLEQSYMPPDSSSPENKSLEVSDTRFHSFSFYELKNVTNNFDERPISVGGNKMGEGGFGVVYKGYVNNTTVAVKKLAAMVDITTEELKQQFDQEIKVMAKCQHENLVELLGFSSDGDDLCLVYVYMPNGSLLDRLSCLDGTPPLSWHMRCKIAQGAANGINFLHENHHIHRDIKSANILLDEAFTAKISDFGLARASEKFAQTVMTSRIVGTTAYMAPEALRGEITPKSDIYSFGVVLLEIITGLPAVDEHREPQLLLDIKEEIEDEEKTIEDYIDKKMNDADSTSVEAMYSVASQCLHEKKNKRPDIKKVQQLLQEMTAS", "settings": "kinase IRAK4; for remaining activity at 1 µM: read-out: % of control at 1 µM"}, "[7]": {"molecular_target": "T7, panel of 442 kinases (Homo sapiens, UniProt O75116)", "T7 construct": "purchased Ambit Biosciences (scanMAXX KINOMEscan)", "T7 sequence (O75116 whole entry)": "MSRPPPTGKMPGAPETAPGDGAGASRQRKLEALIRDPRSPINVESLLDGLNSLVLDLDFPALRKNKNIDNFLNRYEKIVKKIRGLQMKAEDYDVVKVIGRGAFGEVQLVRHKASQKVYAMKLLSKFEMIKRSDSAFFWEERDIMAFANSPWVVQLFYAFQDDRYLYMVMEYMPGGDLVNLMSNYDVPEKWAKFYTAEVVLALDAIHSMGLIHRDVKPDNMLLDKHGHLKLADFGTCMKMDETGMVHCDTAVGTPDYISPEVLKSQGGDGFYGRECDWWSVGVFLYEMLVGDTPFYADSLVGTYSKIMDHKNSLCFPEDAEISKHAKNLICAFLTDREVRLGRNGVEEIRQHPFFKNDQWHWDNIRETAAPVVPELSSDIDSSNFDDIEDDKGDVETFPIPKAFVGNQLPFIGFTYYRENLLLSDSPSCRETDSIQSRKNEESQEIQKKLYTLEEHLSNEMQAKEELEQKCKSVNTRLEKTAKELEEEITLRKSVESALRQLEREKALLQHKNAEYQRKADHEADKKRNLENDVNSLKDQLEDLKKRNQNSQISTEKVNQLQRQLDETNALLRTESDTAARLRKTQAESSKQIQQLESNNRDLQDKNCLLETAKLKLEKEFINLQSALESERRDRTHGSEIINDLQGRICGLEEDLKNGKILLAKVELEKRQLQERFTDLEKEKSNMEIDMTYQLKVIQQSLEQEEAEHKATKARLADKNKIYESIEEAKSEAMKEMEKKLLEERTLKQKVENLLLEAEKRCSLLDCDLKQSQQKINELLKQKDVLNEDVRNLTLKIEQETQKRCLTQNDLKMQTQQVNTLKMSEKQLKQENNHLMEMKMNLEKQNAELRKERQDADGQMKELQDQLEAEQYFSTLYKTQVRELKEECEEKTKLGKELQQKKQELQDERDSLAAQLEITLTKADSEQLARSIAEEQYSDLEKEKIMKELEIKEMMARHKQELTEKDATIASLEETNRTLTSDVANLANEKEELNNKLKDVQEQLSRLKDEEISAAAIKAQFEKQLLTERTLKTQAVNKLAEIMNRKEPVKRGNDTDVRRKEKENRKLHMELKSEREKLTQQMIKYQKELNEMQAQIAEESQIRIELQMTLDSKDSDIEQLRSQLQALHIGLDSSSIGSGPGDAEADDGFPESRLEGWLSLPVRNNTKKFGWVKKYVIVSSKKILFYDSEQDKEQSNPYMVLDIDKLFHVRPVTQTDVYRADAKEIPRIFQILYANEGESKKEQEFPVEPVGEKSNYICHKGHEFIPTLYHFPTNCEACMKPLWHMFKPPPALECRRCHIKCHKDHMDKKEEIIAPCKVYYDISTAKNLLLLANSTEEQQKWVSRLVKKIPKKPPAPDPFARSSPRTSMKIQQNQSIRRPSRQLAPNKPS", "settings": "kinase ROCK2; for remaining activity at 1 µM: read-out: ROCK2 (% of control at 1 µM)"}, "[8]": {"molecular_target": "T8, panel of 442 kinases (Homo sapiens, UniProt O15264)", "T8 construct": "purchased Ambit Biosciences (scanMAXX KINOMEscan)", "T8 sequence (O15264 1-365)": "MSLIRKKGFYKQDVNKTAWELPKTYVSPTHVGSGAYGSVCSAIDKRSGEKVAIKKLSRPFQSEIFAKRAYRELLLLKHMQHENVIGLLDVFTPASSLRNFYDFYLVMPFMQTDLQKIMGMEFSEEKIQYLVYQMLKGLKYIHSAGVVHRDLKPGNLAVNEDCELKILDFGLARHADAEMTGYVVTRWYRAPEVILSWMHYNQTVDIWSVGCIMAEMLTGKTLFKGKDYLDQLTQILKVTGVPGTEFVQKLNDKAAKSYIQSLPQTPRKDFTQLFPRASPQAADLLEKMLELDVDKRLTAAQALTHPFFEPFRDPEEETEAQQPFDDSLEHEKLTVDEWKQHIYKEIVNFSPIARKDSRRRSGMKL", "settings": "kinase p38-delta; for remaining activity at 1 µM: read-out: % of control at 1 µM"}, "[9]": {"settings": "10 µM, read-out: % of control at 10 µM"}}, "data": [{"smiles": "Nc1cc(C(F)(F)F)c(-c2cc(N3CCOCC3)nc(N3CCOCC3)n2)cn1", "note": "[Buparlisib]", "values": [{"measurement": "remaining activity at 1 µM", "setting": "[1]", "result": 100, "unit": "%"}, {"measurement": "remaining activity at 10 µM", "setting": "[1]; [9]", "result": 97, "unit": "%"}, {"measurement": "remaining activity at 1 µM", "setting": "[2]", "result": 100, "unit": "%"}, {"measurement": "remaining activity at 10 µM", "setting": "[2]; [9]", "result": 100, "unit": "%"}, {"measurement": "remaining activity at 1 µM", "setting": "[3]", "result": 82, "unit": "%"}, {"measurement": "remaining activity at 10 µM", "setting": "[3]; [9]", "result": 100, "unit": "%"}, {"measurement": "remaining activity at 1 µM", "setting": "[4]", "result": 100, "unit": "%"}, {"measurement": "remaining activity at 10 µM", "setting": "[4]; 10 µM, read-out: TGFBR1 (% of control at 10 µM)", "result": 100, "unit": "%"}, {"measurement": "remaining activity at 1 µM", "setting": "[5]", "result": 100, "unit": "%"}, {"measurement": "remaining activity at 10 µM", "setting": "[5]; [9]", "result": 98, "unit": "%"}, {"measurement": "remaining activity at 1 µM", "setting": "[6]", "result": 62, "unit": "%"}, {"measurement": "remaining activity at 10 µM", "setting": "[6]; [9]", "result": 67, "unit": "%"}, {"measurement": "remaining activity at 1 µM", "setting": "[7]", "result": 100, "unit": "%"}, {"measurement": "remaining activity at 10 µM", "setting": "[7]; 10 µM, read-out: ROCK2 (% of control at 10 µM)", "result": 89, "unit": "%"}, {"measurement": "remaining activity at 1 µM", "setting": "[8]", "result": 73, "unit": "%"}, {"measurement": "remaining activity at 10 µM", "setting": "[8]; [9]", "result": 100, "unit": "%"}]}, {"smiles": "Cn1c(=O)n(-c2ccc(C(C)(C)C#N)cc2)c2c3cc(-c4cnc5ccccc5c4)ccc3ncc21", "note": "[Dactolisib, 2-methyl-2-[4-(3-methyl-2-oxo-8-quinolin-3-yl-2,3-dihydroimidazo[4,5-c]quinolin-1-yl)-phenyl] propionitrile]", "values": [{"measurement": "remaining activity at 1 µM", "setting": "[3]", "result": 100, "unit": "%"}, {"measurement": "remaining activity at 1 µM", "setting": "[4]", "result": 89, "unit": "%"}, {"measurement": "remaining activity at 1 µM", "setting": "[5]", "result": 84, "unit": "%"}, {"measurement": "remaining activity at 1 µM", "setting": "[6]", "result": 68, "unit": "%"}, {"measurement": "remaining activity at 1 µM", "setting": "[7]", "result": 60, "unit": "%"}, {"measurement": "remaining activity at 1 µM", "setting": "[8]", "result": 56, "unit": "%"}]}, {"smiles": "COc1ncc(-c2ccc3nccc(-c4ccnnc4)c3c2)cc1NS(=O)(=O)c1ccc(F)cc1F", "note": "[Omipalisib]", "values": [{"measurement": "remaining activity at 1 µM", "setting": "[1]", "result": 96, "unit": "%"}, {"measurement": "remaining activity at 1 µM", "setting": "[2]", "result": 100, "unit": "%"}, {"measurement": "remaining activity at 1 µM", "setting": "[3]", "result": 100, "unit": "%"}, {"measurement": "remaining activity at 1 µM", "setting": "[4]", "result": 100, "unit": "%"}, {"measurement": "remaining activity at 1 µM", "setting": "[5]", "result": 100, "unit": "%"}, {"measurement": "remaining activity at 1 µM", "setting": "[6]", "result": 88, "unit": "%"}, {"measurement": "remaining activity at 1 µM", "setting": "[7]", "result": 89, "unit": "%"}, {"measurement": "remaining activity at 1 µM", "setting": "[8]", "result": 94, "unit": "%"}]}, {"smiles": "FC(F)c1nc2ccccc2n1-c1nc(N2CCOCC2)nc(N2CCOCC2)n1", "note": "[ZSTK474, 2-(difluoromethyl)-1-[4,6-di(4-morpholinyl)-1,3,5-triazin-2-yl]-1H-benzimidazole]", "values": [{"measurement": "remaining activity at 1 µM", "setting": "[1]", "result": 100, "unit": "%"}, {"measurement": "remaining activity at 1 µM", "setting": "[2]", "result": 100, "unit": "%"}, {"measurement": "remaining activity at 1 µM", "setting": "[3]", "result": 94, "unit": "%"}, {"measurement": "remaining activity at 1 µM", "setting": "[4]", "result": 79, "unit": "%"}, {"measurement": "remaining activity at 1 µM", "setting": "[5]", "result": 95, "unit": "%"}, {"measurement": "remaining activity at 1 µM", "setting": "[6]", "result": 100, "unit": "%"}, {"measurement": "remaining activity at 1 µM", "setting": "[7]", "result": 86, "unit": "%"}, {"measurement": "remaining activity at 1 µM", "setting": "[8]", "result": 100, "unit": "%"}]}]}
